Assay results reported in paper PMC5051719, “Fourth-Generation Progestins Inhibit 3β-Hydroxysteroid Dehydrogenase Type 2 and Modulate the Biosynthesis of Endogenous Steroids” (PLoS ONE, 2016).
Where two headings read alike, the source gives them in different places.

Key:
Format in all cases: cell-based
[1] = target: T1, 3β-hydroxysteroid dehydrogenase type 2 (3βHSD2) (Homo sapiens, UniProt P26439); test: pregnenolone to progesterone conversion kinetics in transfected COS-1 cells, UPLC-MS/MS
T1 construct: gene HSD3B2
T1 sequence (P26439 1-372): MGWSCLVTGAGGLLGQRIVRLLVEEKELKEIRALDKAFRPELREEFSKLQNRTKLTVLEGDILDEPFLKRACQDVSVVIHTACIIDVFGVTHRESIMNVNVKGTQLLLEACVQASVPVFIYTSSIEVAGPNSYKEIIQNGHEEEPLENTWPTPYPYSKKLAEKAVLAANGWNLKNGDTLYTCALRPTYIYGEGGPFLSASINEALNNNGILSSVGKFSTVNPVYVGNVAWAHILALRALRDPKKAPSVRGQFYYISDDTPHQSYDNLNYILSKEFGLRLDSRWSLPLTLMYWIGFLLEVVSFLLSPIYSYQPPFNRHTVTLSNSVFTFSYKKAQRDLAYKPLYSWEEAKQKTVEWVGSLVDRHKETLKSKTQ

[2] = target: T2, cytochrome P450 17α-hydroxylase/17,20 lyase (CYP17A1) (Homo sapiens, UniProt P05093); test: progesterone conversion in transfected COS-1 cells with […] inhibitor, UPLC-MS/MS
T2 construct: pIRES-hCYP17A1-V5-X-hCYPB5-6HIS expressed in COS-1 cells

[3] = target: T1, 3β-hydroxysteroid dehydrogenase type 2 (3βHSD2); test: Michaelis-Menten kinetics of conversion to progesterone in transfected COS-1 cells (Km), UPLC-MS/MS

T2 sequence (P05093 whole entry): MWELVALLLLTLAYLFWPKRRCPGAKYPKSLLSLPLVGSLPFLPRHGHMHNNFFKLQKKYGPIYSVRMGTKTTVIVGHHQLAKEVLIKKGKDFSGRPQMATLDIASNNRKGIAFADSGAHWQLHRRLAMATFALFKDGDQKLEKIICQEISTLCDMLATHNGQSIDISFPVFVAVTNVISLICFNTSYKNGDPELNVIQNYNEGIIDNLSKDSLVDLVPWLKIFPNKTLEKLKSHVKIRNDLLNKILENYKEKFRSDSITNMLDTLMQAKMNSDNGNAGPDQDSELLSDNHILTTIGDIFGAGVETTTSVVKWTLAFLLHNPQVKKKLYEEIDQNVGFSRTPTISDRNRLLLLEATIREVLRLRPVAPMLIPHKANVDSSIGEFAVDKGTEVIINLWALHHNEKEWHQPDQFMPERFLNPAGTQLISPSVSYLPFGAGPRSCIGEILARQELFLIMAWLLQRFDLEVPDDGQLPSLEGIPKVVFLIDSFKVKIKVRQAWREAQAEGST
T2 sequence (P00167 2-134, further chain): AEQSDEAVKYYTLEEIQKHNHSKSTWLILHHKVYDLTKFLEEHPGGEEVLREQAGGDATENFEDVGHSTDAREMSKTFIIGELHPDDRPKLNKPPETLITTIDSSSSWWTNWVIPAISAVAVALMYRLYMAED

SMILES	Ki ([1]; read-out: Ki) [nM]	also measured
C[C@]12CC[C@H]3[C@@H](CC[C@@]45O[C@@H]4C(O)=C(C#N)C[C@]35C)[C@@H]1CC[C@@H]2O [trilostane, reference compound]	–	Ki [1]: 31.3 ± 5.5 nM
C[C@]12CCC(=O)C=C1[C@@H]1C[C@@H]1[C@H]1[C@@H]3[C@@H]4C[C@@H]4[C@@]4(CCC(=O)O4)[C@@]3(C)CC[C@@H]12 [DRSP, drospirenone]	232 ± 38	inhibition at 1 µM [2]: 55.2 ± 16.5%
CC(=O)[C@H]1CC[C@H]2[C@@H]3CC=C4C[C@@H](O)CC[C@]4(C)[C@H]3CC[C@]12C [Preg, pregnenolone]	–	Km [3]: 0.85 ± 0.05 µM

Second part, led by results:

Ki ([1]; read-out: Ki) [nM]	SMILES	also measured
9.5 ± 0.96	C=C1C[C@H]2[C@@H]3CCC4=CC(=O)CCC4[C@H]3CC[C@]2(C)C1(OC(C)=O)C(C)=O (stereo partly drawn) [NES, nestorone]	–
29 ± 7.1	CC(=O)O[C@]1(C(C)=O)CC[C@H]2[C@@H]3C=C(C)C4=CC(=O)CC[C@@H]4[C@H]3CC[C@@]21C [NoMAC, nomegestrol acetate]	–
